Results published in PubChem BioAssay (NCI).
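Dose response: 5 concentrations. Exposure: 48 h. Format: 96-well plates. Endpoint: linear interpolation; highest concentration if not reached. At the TGI there is no net growth.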

Key:
Assay in all cases: NCI tumour cell line growth inhibition, 48 h
HCT-15 colon = test system: HCT-15 colon
SF-268 CNS = test system: SF-268 CNS
OVCAR-5 ovarian = test system: OVCAR-5 ovarian
MDA-N = test system: MDA-N
NCI-H460 lung = test system: NCI-H460 lung
ACHN renal = test system: ACHN renal
MCF7 breast = test system: MCF7 breast
A549 NSCLC = test system: A549 NSCLC
SNB-19 CNS = test system: SNB-19 CNS
UACC-62 melanoma = test system: UACC-62 melanoma
UACC-257 melanoma = test system: UACC-257 melanoma
OVCAR-8 ovarian = test system: OVCAR-8 ovarian
NCI/ADR-RES ovarian = test system: NCI/ADR-RES ovarian
A498 renal = test system: A498 renal
LOX IMVI melanoma = test system: LOX IMVI melanoma
SK-MEL-5 melanoma = test system: SK-MEL-5 melanoma
SNB-75 CNS = test system: SNB-75 CNS
DU-145 prostate = test system: DU-145 prostate
CAKI-1 renal = test system: CAKI-1 renal
MALME-3M melanoma = test system: MALME-3M melanoma
IGROV1 ovarian = test system: IGROV1 ovarian
RPMI-8226 leukemia = test system: RPMI-8226 leukemia
HCT-116 colon = test system: HCT-116 colon
SK-OV-3 ovarian = test system: SK-OV-3 ovarian
OVCAR-3 ovarian = test system: OVCAR-3 ovarian
M14 melanoma = test system: M14 melanoma
COLO 205 colon = test system: COLO 205 colon
T-47D breast = test system: T-47D breast
OVCAR-4 ovarian = test system: OVCAR-4 ovarian
HOP-92 NSCLC = test system: HOP-92 NSCLC
SF-539 CNS = test system: SF-539 CNS
BT-549 breast = test system: BT-549 breast
SR leukemia = test system: SR leukemia
SK-MEL-2 melanoma = test system: SK-MEL-2 melanoma
HL-60(TB) leukemia = test system: HL-60(TB) leukemia
MDA-MB-435 = test system: MDA-MB-435
NCI-H23 lung = test system: NCI-H23 lung
HCC-2998 colon = test system: HCC-2998 colon
HOP-62 NSCLC = test system: HOP-62 NSCLC
PC-3 prostate = test system: PC-3 prostate
786-0 renal = test system: 786-0 renal
HT29 colon = test system: HT29 colon
U251 CNS = test system: U251 CNS
NCI-H226 lung = test system: NCI-H226 lung
MDA-MB-231 breast = test system: MDA-MB-231 breast
KM12 colon = test system: KM12 colon
SK-MEL-28 melanoma = test system: SK-MEL-28 melanoma
SW-620 colon = test system: SW-620 colon
SN12C renal = test system: SN12C renal
K-562 leukemia = test system: K-562 leukemia
MOLT-4 leukemia = test system: MOLT-4 leukemia
CCRF-CEM leukemia = test system: CCRF-CEM leukemia
HS 578T breast = test system: HS 578T breast
NCI-H522 lung = test system: NCI-H522 lung
EKVX NSCLC = test system: EKVX NSCLC
UO-31 renal = test system: UO-31 renal
RXF 393 renal = test system: RXF 393 renal
SF-295 CNS = test system: SF-295 CNS
TK-10 renal = test system: TK-10 renal

C[C@H]1C(OCCOC2O[C@@H]3O[C@@]4(C)CC[C@H]5[C@H](C)CCC([C@H]2C)[C@@]35O4)O[C@@H]2O[C@@]3(C)CC[C@H]4[C@H](C)CCC1[C@@]24O3 (stereo partly drawn)
TGI (HCT-15 colon): > 100 µM
TGI (SF-268 CNS): > 100 µM
TGI (OVCAR-5 ovarian): > 100 µM
TGI (MDA-N): > 100 µM
TGI (NCI-H460 lung): > 100 µM
TGI (ACHN renal): > 100 µM
TGI (MCF7 breast): > 100 µM
TGI (A549 NSCLC): > 100 µM
TGI (SNB-19 CNS): > 100 µM
TGI (UACC-62 melanoma): > 100 µM
TGI (UACC-257 melanoma): > 100 µM
TGI (OVCAR-8 ovarian): > 100 µM
TGI (NCI/ADR-RES ovarian): > 100 µM
TGI (A498 renal): > 100 µM
TGI (LOX IMVI melanoma): 57.5 µM
TGI (SK-MEL-5 melanoma): 32.2 µM
TGI (SNB-75 CNS): 81.7 µM
TGI (DU-145 prostate): 74.3 µM
TGI (CAKI-1 renal): > 100 µM
TGI (MALME-3M melanoma): 41.5 µM
TGI (IGROV1 ovarian): 90.6 µM
TGI (RPMI-8226 leukemia): > 100 µM
TGI (HCT-116 colon): 78.6 µM
TGI (SK-OV-3 ovarian): > 100 µM
TGI (OVCAR-3 ovarian): > 100 µM
TGI (M14 melanoma): > 100 µM
TGI (COLO 205 colon): 37.7 µM
TGI (T-47D breast): 37.5 µM
TGI (OVCAR-4 ovarian): > 100 µM
TGI (HOP-92 NSCLC): > 100 µM
TGI (SF-539 CNS): > 100 µM
TGI (BT-549 breast): > 100 µM
TGI (SR leukemia): > 100 µM
TGI (SK-MEL-2 melanoma): 42.3 µM
TGI (HL-60(TB) leukemia): 74.9 µM
TGI (MDA-MB-435): > 100 µM
TGI (NCI-H23 lung): > 100 µM
TGI (HCC-2998 colon): 43.7 µM
TGI (HOP-62 NSCLC): > 100 µM
TGI (PC-3 prostate): > 100 µM
TGI (786-0 renal): > 100 µM
TGI (HT29 colon): > 100 µM
TGI (U251 CNS): > 100 µM
TGI (NCI-H226 lung): > 100 µM
TGI (MDA-MB-231 breast): 75.1 µM
TGI (KM12 colon): > 100 µM
TGI (SK-MEL-28 melanoma): > 100 µM
TGI (SW-620 colon): > 100 µM
TGI (SN12C renal): 52.6 µM
TGI (K-562 leukemia): > 100 µM
TGI (MOLT-4 leukemia): > 100 µM
TGI (CCRF-CEM leukemia): 82.5 µM

Cc1[nH]n(-c2nc3c(c(=O)[nH]2)CCC3)c(=O)c1CCO
TGI (HCT-15 colon): > 100 µM
TGI (SF-268 CNS): > 100 µM
TGI (OVCAR-5 ovarian): > 100 µM
TGI (MDA-N): > 100 µM
TGI (NCI-H460 lung): > 100 µM
TGI (ACHN renal): > 100 µM
TGI (HS 578T breast): > 100 µM
TGI (NCI-H522 lung): > 100 µM
TGI (MCF7 breast): > 100 µM
TGI (A549 NSCLC): > 100 µM
TGI (SNB-19 CNS): > 100 µM
TGI (UACC-62 melanoma): > 100 µM
TGI (UACC-257 melanoma): > 100 µM
TGI (OVCAR-8 ovarian): > 100 µM
TGI (NCI/ADR-RES ovarian): > 100 µM
TGI (A498 renal): > 100 µM
TGI (LOX IMVI melanoma): > 100 µM
TGI (SK-MEL-5 melanoma): > 100 µM
TGI (SNB-75 CNS): 46.5 µM
TGI (DU-145 prostate): > 100 µM
TGI (CAKI-1 renal): > 100 µM
TGI (EKVX NSCLC): > 100 µM
TGI (MALME-3M melanoma): > 100 µM
TGI (IGROV1 ovarian): > 100 µM
TGI (RPMI-8226 leukemia): > 100 µM
TGI (HCT-116 colon): > 100 µM
TGI (SK-OV-3 ovarian): > 100 µM
TGI (OVCAR-3 ovarian): > 100 µM
TGI (M14 melanoma): > 100 µM
TGI (COLO 205 colon): > 100 µM
TGI (T-47D breast): > 100 µM
TGI (OVCAR-4 ovarian): > 100 µM
TGI (SF-539 CNS): > 100 µM
TGI (SK-MEL-2 melanoma): > 100 µM
TGI (UO-31 renal): > 100 µM
TGI (HL-60(TB) leukemia): > 100 µM
TGI (MDA-MB-435): > 100 µM
TGI (NCI-H23 lung): > 100 µM
TGI (HCC-2998 colon): > 100 µM
TGI (HOP-62 NSCLC): > 100 µM
TGI (PC-3 prostate): > 100 µM
TGI (786-0 renal): > 100 µM
TGI (HT29 colon): > 100 µM
TGI (U251 CNS): > 100 µM
TGI (NCI-H226 lung): > 100 µM
TGI (MDA-MB-231 breast): > 100 µM
TGI (KM12 colon): > 100 µM
TGI (RXF 393 renal): > 100 µM
TGI (SK-MEL-28 melanoma): > 100 µM
TGI (SW-620 colon): > 100 µM
TGI (SF-295 CNS): > 100 µM
TGI (SN12C renal): > 100 µM
TGI (K-562 leukemia): > 100 µM
TGI (MOLT-4 leukemia): > 100 µM
TGI (TK-10 renal): > 100 µM
TGI (CCRF-CEM leukemia): > 100 µM
